Source: ChEMBL document CHEMBL2074409, “P-glycoprotein plays a role in the oral absorption of BMS-387032, a potent cyclin-dependent kinase 2 inhibitor, in rats” (Cancer Chemother Pharmacol, 2004)

Target: ATP-dependent translocase ABCB1 (Homo sapiens, UniProt P08183)
Test: TP_TRANSPORTER: transepithelial transport of BMS387032 at a concentration of 200uM in Caco-2 cells
Assay type: functional, cell-based
Settings: caco-2, 200 µM

Chain of ATP-dependent translocase ABCB1 (P08183 whole entry): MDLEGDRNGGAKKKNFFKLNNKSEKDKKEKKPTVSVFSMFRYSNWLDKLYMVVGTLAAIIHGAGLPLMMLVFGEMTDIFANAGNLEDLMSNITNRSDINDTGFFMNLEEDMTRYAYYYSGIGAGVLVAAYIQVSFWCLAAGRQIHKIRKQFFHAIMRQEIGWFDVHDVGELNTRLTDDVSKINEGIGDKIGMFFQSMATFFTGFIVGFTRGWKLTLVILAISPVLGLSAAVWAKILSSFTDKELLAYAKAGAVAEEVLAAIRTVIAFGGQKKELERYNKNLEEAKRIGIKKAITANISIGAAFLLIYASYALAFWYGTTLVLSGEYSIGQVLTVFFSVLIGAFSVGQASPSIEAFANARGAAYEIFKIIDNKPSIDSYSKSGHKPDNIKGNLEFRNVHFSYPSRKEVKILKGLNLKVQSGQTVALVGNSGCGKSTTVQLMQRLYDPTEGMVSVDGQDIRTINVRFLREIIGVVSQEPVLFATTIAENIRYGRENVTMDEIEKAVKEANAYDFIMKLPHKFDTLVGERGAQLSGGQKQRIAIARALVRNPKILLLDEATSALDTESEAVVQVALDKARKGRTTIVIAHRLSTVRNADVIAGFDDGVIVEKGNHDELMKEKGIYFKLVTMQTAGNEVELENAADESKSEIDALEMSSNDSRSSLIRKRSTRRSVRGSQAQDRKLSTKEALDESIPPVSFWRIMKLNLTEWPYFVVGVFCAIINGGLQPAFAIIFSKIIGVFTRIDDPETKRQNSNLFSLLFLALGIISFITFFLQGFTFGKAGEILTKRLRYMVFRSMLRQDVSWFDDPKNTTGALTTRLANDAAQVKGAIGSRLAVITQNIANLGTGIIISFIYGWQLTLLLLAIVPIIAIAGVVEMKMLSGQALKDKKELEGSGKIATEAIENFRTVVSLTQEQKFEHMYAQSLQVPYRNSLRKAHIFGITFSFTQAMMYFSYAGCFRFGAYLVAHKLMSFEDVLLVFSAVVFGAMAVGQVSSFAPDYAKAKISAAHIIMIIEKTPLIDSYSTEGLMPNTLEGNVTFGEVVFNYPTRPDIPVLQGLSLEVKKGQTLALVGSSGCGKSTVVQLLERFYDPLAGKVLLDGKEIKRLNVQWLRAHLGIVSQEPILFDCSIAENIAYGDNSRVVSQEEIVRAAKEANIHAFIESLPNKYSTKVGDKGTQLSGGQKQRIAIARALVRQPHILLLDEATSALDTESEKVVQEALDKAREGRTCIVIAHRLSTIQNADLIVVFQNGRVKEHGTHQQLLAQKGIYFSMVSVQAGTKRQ

Activity: substrate [+]
Compound: CC(C)(C)c1cnc(CSc2cnc(NC(=O)C3CCNCC3)s2)o1 [BMS-387032]
